Laboratory results: article PMC4176448 (The Journal of Infectious Diseases, 2014)

Tested on: influenza B virus
Design: species or system human (patient)
Conditions: human, in vivo, po

CCOC(=O)C1=C[C@@H](OC(CC)CC)[C@H](NC(C)=O)[C@@H](N)C1 [Oseltamivir, oseltamivir]
NPAs tested for influenza B virus after oseltamivir treatment: still positive
